Like-named read-outs stand apart in the source and are kept apart here.
What was measured:
[1] = test system: primary neuronal cultures from embryonic rat brains; experiment: Rat oscillation assay (FLIPR, neuronal calcium oscillations); format: cell-based; settings: Rattus norvegicus
Description: This assay is a functional phenotypic assay designed to mimic epileptic seizures using primary neuronal cultures from embryonic rat brains, which form a functional neuronal network that generate synchronized intracellular calcium concentration oscillations when cultured at high density in 384-well plate. The epileptic phenotype is induced by incubating the neurons in magnesium-free assay buffer, that results in increased probability of NMDA receptor activation, leading to an increased frequency and amplitude of intracellular calcium oscillations. Once neurons are incubated with the calcium indicator dye Fluo-8 AM (Tebu-bio), neuronal calcium oscillations can be monitored in real time using FLIPR® Tetra (fluorometric plate reader, Molecular Devices). With these recordings, the effect of anti-epileptic drugs can be quantified. The anti-epileptic effect of compounds, which activate directly or indirectly the Kv7 channels can be modulated by the Kv7 channel blocker XE-991. The assay was performed as described previously (Pacico N, Mingorance-Le Meur A. New In Vitro Phenotypic Assay for Epilepsy: Fluorescent Measurement of Synchronized Neuronal Calcium Oscillations. PLoS ONE 9(1) 2014) with modifications described hereafter.
Animal care followed standard procedures in accordance with swiss institutional guidelines. Dissociated neuronal cultures were obtained from cerebral cortices of embryonic Wistar rats at embryonic stage E18 (Charles River). The uterine horns were removed by caesarian surgery from deeply anesthetized rats (Isofurane) and sacrificed by decapitation. The embryos were decapitated by closing forceps. The brains were isolated and dissected one by one in ice-cold PBS (Life Technologies) under optical control using a binocular. Meninges, olfactory bulbs, and basal ganglia were removed. Cortical hemispheres (still including the hippocampus) were cut in small pieces with tweezers and placed on ice in prechilled Hibernate-E medium (Life technology). The hemispheres were then incubated in 10 mL of Hibernate-E containing 15 U/mL papain (Worthington) for 25 min at 30° C. with gentle mixing every 10 min. Genomic DNA was then digested by prolonging the incubation during 10 min at 37° C. in presence of 4 U/mL rDNase I (Ambion). The obtained suspension was then centrifuged at 800 g for 5 min and the cell pellet was resuspended in 2 mL Hibernate-E and gently dissociated by pipetting up and down 10 times with a plastic Pasteur pipette resulting in a homogenous cell suspension. This suspension was immediately filtered through a 70 µm cell strainer (MACS® SmartStrainer, Miltenyi), collected in 10 mL Hibernate-E and centrifuged at 800 g for 5 min. The cell pellet was resuspended in Neurobasal medium, supplemented with 2% B-27, 0.5 mM Glutamax-I, 100 U/mL penicillin, 100 µg/mL streptomycin (Life Technologies) and diluted at the final concentration of 300′000 cells/mL. One day before plating the cells, 384-well plates were coated with 25 µL/well of 0.1 % poly-L-lysine solution (Sigma), incubated overnight at 37° C., washed two times with sterile distilled water and allowed to dry at room temperature for >2 h. The neurons were seeded at a density of 15′000 cells/well in 50 µL/well in a 384-well black, clear-bottomed plates (Corning) and subsequently maintained in an incubator at 37° C., 5% CO2 and 95% humidity for 8 to 10 days. After 3 and 7 days, 40% of media was renewed under sterile conditions.
Neurons seeded in the assay plates were washed with Hank’s balanced salt solution (HBSS) devoid of Ca^2+ and Mg^2+, supplemented with 20 mM HEPES (Life Technologies) and 2 mM CaCl2 (Sigma), pH 7.4 (hereafter called Assay buffer) using a Biotek EL406 plate washer. Neurons were loaded with 1 µM Fluo-8 AM in Assay buffer for 15 min at 37° C., 5% CO2. […]

[2] = test system: audiogenic generalized convulsive seizures in DBA/2J mice; experiment: Audiogenic seizure-sensitive mouse model of generalized convulsive seizures; format: in vivo; settings: challenge 1h
Description: Compounds were formulated in a 10% polyethylene glycol 400 (PEG 400) / 90% aqueous solution of 0.5 % methylcellulose (MC 0.5%). Firstly drugs are dissolved in PEG 400 and then suspended in MC 0.5 % for oral gavage at Xmg/5 mL/kg (X see table).
• 1. Procedure: Following two days of acclimatisation, auditory seizures are induced in male juvenile DBA/2J mice (22-24 days old; Janvier Labs, France). Each mouse is placed individually in the exposure chamber, an hemispheric acrylic glass dome (diameter: 50 cm) within a sound-attenuated box. The soundattenuated box is equipped with two house lights and a camera system (Fire-I from Unibrain) in order to observe and record the behavioral seizure response. After 60 seconds of habituation, the stimulus, a mixed frequency tone of 15-20 kHz at 110 dB (SASLab Lite, Avisoft Bioacoustics), is played from a speaker that is placed on the top center of the dome. […] Seizures are classified as following: stage 0, normal behavior; stage 1, wild running; stage 2, generalized clonus; stage 3, tonic extension of the hind limbs. • 2. Compounds testing: Acute compound effects on audiogenic generalized convulsive seizures are evaluated in independent groups of 8-10 mice randomly assigned. Following oral administration of compound or vehicle, the maximum seizure stage during sound exposure is assessed. Compounds are given 1 hour before exposure to the stimulus. Each mouse is exposed to the auditory stimulus only once and euthanized afterwards by CO2 inhalation.

[3] = molecular target: T1, Kv7.2/7.3 (human KCNQ2 and KCNQ3 genes) in HEK293 cells (Homo sapiens, UniProt O43525+O43526); experiment: Kv7.2/3 assay (FLIPR potassium assay, agonist mode); format: cell-based; settings: Kv7.2/7.3 activation, responses relative to Flupirtine
T1 construct: host or cells: HEK293
Description: HEK293 cells were stably transfected with the appropriate ion channel cDNA(s) (human KCNQ2 and KCNQ3 genes). Cells were cultured in Dulbecco’s Modified Eagle Medium /Nutrient mixture F-12 (D-MEM/F-12) supplemented with 10% fetal bovine serum, 100 U/mL penicillin G sodium, 100 µg/mL streptomycin sulfate and selection antibiotics. FLIPR Test Procedure: For FLIPR assay, cells were plated in 384-well black clear-bottomed microtiter plates (BD Biocoat Poly-D-Lysine Multiwell Cell Culture Plate) at 15′000 to 30′000 cells per well. Cells were incubated at 37° C. overnight or until cells reached sufficient density in the wells (near confluent monolayer) to use in fluorescence assays. […] Assays were performed with the FLIPR potassium assay kit (Molecular Devices) according to the manufacturer’s instructions. Dye-loading: Growth media was removed and replaced with 20 µL of dye loading buffer for 60 min at room temperature. FLIPR Recording (agonist mode): Stock solutions of test compounds were prepared at a concentration of 33.3 mM in DMSO. 5 µL of 5x concentrated test, vehicle, or control compounds solutions prepared in the stimulation buffer (K^+-free buffer with 5 mM TI^+) were added to each well and fluorescence recording was continued for 5 min. The agonist effect (EC50 and % effect) of test or control compounds on Kv7 channels was determined as follows: Raw data was exported using Screenworks® 4.2 software and the fluorescence traces were analysed using Microsoft Excel (Microsoft Corp., Redmond, WA). The test compounds responses were expressed as % of maximum response of the control compound Flupirtine (Sigma-Aldrich), which was tested at concentrations ranging from 0.03 to 100 µM. Concentration-response data were fitted to a Hill equation. Non-linear least squares fits were made assuming a simple binding model. If appropriate, fits were weighted by the standard deviation. No assumptions about the fit parameters were made; the fit parameters were determined by the algorithm.

[4] = test system: seizure activity in various rodent models; settings: acute seizure models, DBA2 mice, rat kindling model; cited from earlier work
[5] = test system: patients with drug-resistant focal-onset seizures; settings: two phase three trials; cited from earlier work
[6] = test system: Knock-in mice carrying a KCNQ2 or KCNQ3 variant; settings: knock-in mice with spontaneous seizures, reduced seizure thresholds; cited from earlier work
[7] = 20 min, 20 min after compound addition, AUC of fluorescence, read-out: FLIPR: IC50 [nM] 20 min
[8] = Cortical neurone, acute phase, ratio of AUC fluorescence before and after compound addition, rat cortical neurons, Mg-free buffer, read-out: FLIPR: IC50 [nM] acute

Row | Structure (SMILES) | IC50 [1, 7] | IC50 [1, 8] | further results
1 | O=C(NCc1cccc(OC(F)(F)F)c1)NC12CC(C(F)(F)F)(C1)C2 [Example 23, 1-(3-Trifluoromethoxy-Benzyl)-3-(3-Trifluoromethyl-Bicyclo[1.1.1]Pent-1-yl)-Urea] | 53 nM | 75 nM | Seizure stage [% vs. vehicle] ([2]; 30 mg/kg po): -85 % vs. vehicle
2 | O=C(NCc1cccc(OC(F)(F)F)c1)NC12CC(F)(C1)C2 [Example 24, 1-(3-Fluoro-bicyclo[1.1.1]pent-1-yl)-3-(3-trifluoromethoxybenzyl)-urea] | 198 nM | 208 nM | EC50 [3]: 143 nM; Seizure stage [% vs. vehicle] ([2]; 30 mg/kg po): -100 % vs. vehicle
3 | O=C(NCc1cccc(C(F)(F)F)c1)NC12CC(C(F)(F)F)(C1)C2 [Example 37, 1-(3-Trifluoromethyl-benzyl)-3-(3-trifluoromethyl-bicyclo[1.1.1]pent-1-yl)-urea] | 32 nM | 26 nM | EC50 [3]: 30 nM; Seizure stage [% vs. vehicle] ([2]; 15 mg/kg po): -100 % vs. vehicle
4 | O=C(NCc1cccc(C(F)(F)F)c1)NC1CC(C(F)(F)F)C1 (stereo not drawn) [Example 41, 1-(3-Trifluoromethyl-benzyl)-3-(3-trifluoromethyl-cyclobutyl)-urea] | 117 nM | 73 nM | –
5 | O=C(NCc1cccc(C(F)(F)F)c1)NC1CC(O)(C(F)(F)F)C1 (stereo not drawn) [Example 42, 1-(3-Hydroxy-3-trifluoromethyl-cyclobutyl)-3-(3-trifluoromethyl-benzyl)-urea] | 1920 nM | 1170 nM | –
6 | O=C(NCc1ccnc(OCC(F)(F)F)c1)NC12CC(C1)C2 [Example 43, 1-Bicyclo[1.1.1]Pent-1-yl-3-[2-(2,2,2-Trifluoro-Ethoxy)-Pyridin-4-Ylmethyl]-Urea] | 967 nM | 578 nM | –
7 | O=C(NCc1ccnc(OCC(F)(F)F)c1)NC12CC(F)(C1)C2 [Example 44, 1-(3-Fluoro-bicyclo[1.1.1]pent-1-yl)-3-[2-(2,2,2-trifluoro-ethoxy)-pyridin-4-ylmethyl]-urea] | 1350 nM | 591 nM | –
8 | O=C(NCc1ccnc(OCC(F)(F)F)c1)NC12CC(C(F)(F)F)(C1)C2 [Example 45, 1-[2-(2,2,2-Trifluoro-ethoxy)-pyridin-4-ylmethyl]-3-(3-trifluoromethyl-bicyclo[1.1.1]pent-1-yl)-urea] | 701 nM | 131 nM | –
9 | O=C(NCc1ccnc(OCC(F)(F)F)c1)NC1CC(C(F)F)C1 (stereo not drawn) [Example 46, 1-(3-Difluoromethyl-cyclobutyl)-3-[2-(2,2,2-trifluoro-ethoxy)-pyridin-4-ylmethyl]-urea] | 257 nM | 148 nM | –
10 | O=C(NCc1cccc(C(F)(F)F)c1)NC12CCC(C1)C2 [Example 48, 1-Bicyclo[2.1.1]Hex-1-yl-3-(3-Trifluoromethyl-Benzyl)-Urea] | 484 nM | 232 nM | –
11 | CC1(NC(=O)NCc2cccc(C(F)(F)F)c2)CC(F)(F)C1 [Example 49, 1-(3,3-Difluoro-1-Methyl-Cyclobutyl)-3-(3-Trifluoromethyl-Benzyl)-Urea] | 628 nM | 247 nM | –
12 | CCOC(=O)Nc1ccc(NCc2ccc(F)cc2)cc1N [Retigabine/ezogabine] | – | – | seizure activity [4]: reduces seizure activity; seizure frequency [5]: significantly reduced seizure frequency; seizures [6]: attenuated

Reference: US20230303486A1, “CYCLOBUTYL-UREA DERIVATIVES” (Idorsia Pharmaceuticals Ltd, priority 2020, published 2023)
